Experimental data published in ChEMBL document CHEMBL5352459, “Resorcinol-based hemiindigoid derivatives as human tyrosinase inhibitors and melanogenesis suppressors in human melanoma cells” (Eur J Med Chem, 2023).

T1: Tyrosinase (Homo sapiens, UniProt P14679)
T1 sequence (P14679 whole entry): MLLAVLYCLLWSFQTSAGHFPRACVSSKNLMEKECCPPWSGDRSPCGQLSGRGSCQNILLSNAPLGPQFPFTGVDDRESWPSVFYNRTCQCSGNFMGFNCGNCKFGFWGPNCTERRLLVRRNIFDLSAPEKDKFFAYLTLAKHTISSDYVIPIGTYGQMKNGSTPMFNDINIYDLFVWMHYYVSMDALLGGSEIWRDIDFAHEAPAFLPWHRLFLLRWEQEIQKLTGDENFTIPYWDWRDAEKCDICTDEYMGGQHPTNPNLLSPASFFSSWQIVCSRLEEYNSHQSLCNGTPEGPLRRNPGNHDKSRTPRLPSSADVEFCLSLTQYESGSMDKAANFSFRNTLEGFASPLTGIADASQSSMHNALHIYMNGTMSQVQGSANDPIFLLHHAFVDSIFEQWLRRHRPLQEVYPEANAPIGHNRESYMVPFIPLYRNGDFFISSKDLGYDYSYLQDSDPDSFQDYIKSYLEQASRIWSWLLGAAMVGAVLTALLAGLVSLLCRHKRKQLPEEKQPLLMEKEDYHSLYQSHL

B1: Tyrosinase (Homo sapiens), P14679 (protein)
chain: T1 sequence (P14679 whole entry)

Columns and labels:
[1] = biological target: T1, Tyrosinase
[2] = biological target: T1, Tyrosinase; remark: listed apart in the source
[3] = in vitro; conditions: human, MNT-1 cells
Description: Cytotoxicity against human MNT-1 cells

[4] = test system: MNT-1; assay: cells; conditions: Homo sapiens, MNT-1, 96 h
Description: Inhibition of melanogenesis in human MNT-1 cells incubated for 96 hrs

[5] = biological target: T1, Tyrosinase; assay: Inhibition of human tyrosinase
[6] = biological target: Mushroom tyrosinase (Agaricus bisporus, UniProt O42713+Q00024+C7FF04+C7FF05)
[7] = compound: O=C1/C(=C/c2ccc(O)cc2O)Oc2c(O)cccc21; format: cell-based; conditions: Homo sapiens; HEK293T; dose 0-8 µM, time 1.0 hrs
[8] = compound: O=C1/C(=C/c2ccc(O)cc2O)Cc2c(O)cccc21; format: cell-based; conditions: Homo sapiens; HEK293T; dose 0-8 µM, time 1.0 hrs
[9] = compound: O=C1/C(=C/c2ccc(O)cc2O)Oc2c(O)cccc21; format: cell-based; conditions: Homo sapiens; HEK293T; dose 0-8 µM, time 1.0 hrs; remark: listed apart in the source
[10] = compound: O=C1/C(=C/c2ccc(O)cc2O)Cc2c(O)cccc21; format: cell-based; conditions: Homo sapiens; HEK293T; dose 0-8 µM, time 1.0 hrs; remark: listed apart in the source
[11] = compound: O=C1/C(=C/c2ccc(O)cc2O)Oc2c(O)cccc21; format: cell-based; conditions: Homo sapiens; HEK293T; dose 0-8 µM, time 1.0 hrs; remark: listed apart in the source
[12] = compound: O=C1/C(=C/c2ccc(O)cc2O)Cc2c(O)cccc21; format: cell-based; conditions: Homo sapiens; HEK293T; dose 0-8 µM, time 1.0 hrs; remark: listed apart in the source

| Molecule | IC50 [2] | further results |
| --- | --- | --- |
| O=C1/C(=C/c2ccc(O)cc2O)Cc2c(O)cccc21 | 1.6 µM | Ki [1]: 0.25 µM; CC50 [3]: 91 µM; IC50 [4]: 29 µM |
| CN(C)c1cc(O)c2c(c1)O/C(=C\c1ccc(O)cc1O)C2=O | 18.4 µM | – |
| O=C1/C(=C/c2ccc(O)cc2O)Sc2cc(O)ccc21 | 5.8 µM | – |
| O=C1/C(=C/c2ccc(O)cc2O)Sc2ccccc21 | 5.9 µM | – |
| O=C1/C(=C/c2ccc(O)cc2O)Oc2c(O)cccc21 | 1.57 µM | Ki [1]: 0.55 µM; CC50 [3]: 108 µM; IC50 [4]: 32 µM |
| O=C1/C(=C/c2ccc(O)cc2O)Oc2c1ccc(O)c2I | 32 µM | – |
| CCCCc1ccc(O)cc1O [RUCINOL] | 8.3 µM | – |
| O=C1/C(=C/c2ccc(O)cc2O)Nc2ccccc21 | 12.7 µM | – |
| O=C1C(=Cc2ccc(O)cc2O)C(=O)c2ccccc21 | > 100 µM | – |
| COc1ccc2c(c1)O/C(=C\c1ccc(O)cc1O)C2=O | 6.9 µM | – |
| CC1/C(=C\c2ccc(O)cc2O)C(=O)c2ccccc21 (centres undefined) | 8.2 µM | – |
| O=C1/C(=C/c2ccc(O)cc2O)Oc2cc(O)cc(O)c21 | 7.7 µM | – |
| COc1cc(OC)c2c(c1)O/C(=C\c1ccc(O)cc1O)C2=O | > 100 µM | – |
| O=C1/C(=C/c2c(O)cc(O)cc2O)Oc2cc(O)ccc21 | 15 µM | – |
| O=C1c2ccccc2C(=O)N1Cc1ccc(O)cc1O | > 100 µM | – |
| O=C1/C(=C/c2ccc(O)cc2O)Sc2c(O)cccc21 | 48 µM | – |
| Cc1c(C(=O)c2ccc(O)cc2O)oc2c(O)cccc12 | > 100 µM | – |
| CN(C)c1ccc2c(c1)O/C(=C\c1ccc(O)cc1O)C2=O | > 100 µM | – |
| Nc1c(C(=O)c2ccc(O)cc2O)oc2c(O)cccc12 | > 100 µM | – |
| CCCCOc1ccc2c(c1)O/C(=C\c1ccc(O)cc1O)C2=O | > 100 µM | – |
| O=C1/C(=C/c2ccc(O)cc2O)Cc2cc(O)ccc21 | 3.4 µM | – |

| Molecule | IC50 [2] | further results |
| --- | --- | --- |
| O=C1/C(=C/c2ccc(O)cc2O)Oc2ccccc21 | 18 µM | – |
| O=C1/C(=C/c2ccc(O)cc2O)Oc2cccc(O)c21 | 25 µM | – |
| O=c1c2ccccc2[nH]n1Cc1ccc(O)cc1O | > 100 µM | – |
| O=C1/C(=C/c2ccc(O)cc2O)Oc2c1ccc(O)c2O | 11.8 µM | – |
| Oc1ccc(Cc2cc3cccc(O)c3o2)c(O)c1 | > 100 µM | – |
| COc1ccc2c(c1C)O/C(=C\c1ccc(O)cc1O)C2=O | > 100 µM | – |
| COc1cccc2c1O/C(=C\c1ccc(O)cc1O)C2=O | 80 µM | – |
| Oc1cccc(O)c1 [RESORCINOL] | – | IC50 [5]: > 3000 µM |
| O=C1/C(=C/c2ccc(O)cc2O)Oc2ccc(O)cc21 | 19 µM | – |
| COc1cc(O)ccc1/C=C1\Oc2cc(O)ccc2C1=O | > 100 µM | – |
| O=C(/C=C/c1ccc(O)cc1O)c1ccccc1 | 60 µM | – |
| O=C1/C(=C/c2ccc(O)cc2O)Oc2cc(O)ccc21 | 6.4 µM | – |
| Cc1c(O)ccc2c1O/C(=C\c1ccc(O)cc1O)C2=O | 80 µM | – |
| O=C1/C(=C/c2ccc(O)cc2O)Oc2cc(Cl)ccc21 | > 100 µM | – |
| O=C1/C(=C/c2ccc(=O)n(O)c2)Oc2cc(O)ccc21 | 15 µM | Ki [6]: 1.27 µM |
| O=C1/C(=C/c2ccc(O)cc2O)Nc2cc(O)ccc21 | 2.3 µM | – |
| O=c1cc(-c2ccc(O)cc2O)oc2ccccc12 | > 100 µM | – |
| COc1ccc2c(c1OC)O/C(=C\c1ccc(O)cc1O)C2=O | > 100 µM | – |
| O=C1/C(=C/c2ccc(O)cc2O)Oc2cc(F)cc(F)c21 | 88 µM | – |
| O=C1/C(=C/c2ccc(O)cc2O)Cc2ccccc21 | 5.8 µM | – |
| B1 | – | kcat [7]: 5.41 s⁻¹; kcat [8]: 5.78 s⁻¹; Km [9]: 143 µM; Km [10]: 161 µM; Vmax [11]: 4.86 µmol/min/mg; Vmax [12]: 5.18 µmol/min/mg |
